According to PubChem BioAssay (NCI):
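Cultured in 96-well plates, cells were exposed to test compound for 48 hours across five concentrations. GI50 = concentration required for 50% inhibition of growth. TGI: concentration producing complete growth inhibition.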

Key:
Experiment in all cases: inhibition of tumour cell growth, NCI panel, 48 h
ACHN renal = tested on: ACHN renal
HCT-116 colon = tested on: HCT-116 colon
HL-60(TB) leukemia = tested on: HL-60(TB) leukemia
HOP-92 NSCLC = tested on: HOP-92 NSCLC
NCI-H23 lung = tested on: NCI-H23 lung
NCI-H522 lung = tested on: NCI-H522 lung
RPMI-8226 leukemia = tested on: RPMI-8226 leukemia
SK-MEL-5 melanoma = tested on: SK-MEL-5 melanoma
UACC-257 melanoma = tested on: UACC-257 melanoma
UO-31 renal = tested on: UO-31 renal

SMILES | GI50 (ACHN renal) [µM] | TGI (ACHN renal) [µM] | GI50 (HCT-116 colon) [µM] | TGI (HCT-116 colon) [µM] | GI50 (HL-60(TB) leukemia) [µM] | TGI (HL-60(TB) leukemia) [µM] | GI50 (HOP-92 NSCLC) [µM] | TGI (HOP-92 NSCLC) [µM] | GI50 (NCI-H23 lung) [µM] | TGI (NCI-H23 lung) [µM] | GI50 (NCI-H522 lung) [µM] | TGI (NCI-H522 lung) [µM] | GI50 (RPMI-8226 leukemia) [µM] | TGI (RPMI-8226 leukemia) [µM] | GI50 (SK-MEL-5 melanoma) [µM] | TGI (SK-MEL-5 melanoma) [µM] | GI50 (UACC-257 melanoma) [µM] | TGI (UACC-257 melanoma) [µM] | GI50 (UO-31 renal) [µM] | TGI (UO-31 renal) [µM]
CCOc1ccc(N2C(N)=NC(N)=NC2(C)C)cc1 | > 100 | > 100 | 34.6 | > 100 | 72 | > 100 | > 100 | > 100 | 58.8 | > 100 | > 100 | > 100 | > 100 | > 100 | 40.8 | > 100 | > 100 | > 100 | > 100 | > 100
Cn1cc(/C=C2\C(=O)Nc3cccnc32)c2ccccc21 | 11.5 | > 25 | 14.7 | > 25 | > 22.5 | > 25 | 2.51 | 24.8 | 10.9 | > 25 | 14.7 | > 25 | > 25 | > 25 | 9.2 | > 25 | 13.9 | > 25 | 4.86 | > 25
COc1ccccc1OCC(COC(=O)Nc1ccc(C)cc1)OC(=O)Nc1ccc(C)cc1 (stereo not drawn) |  | 67.7 |  | 31.3 |  | 37.4 |  | 29 |  | 63.7 |  | 31.5 |  | 38.8 |  | 47.7 |  | 49.7 |  | 34.3
Fc1cc(Nc2ccc3c(OCCCN4CCOCC4)cccc3n2)ccc1Cl | 3.09 | 10.8 | 2.76 | 7.16 | 2.68 | 7.77 | 2.4 | 6.26 | 2.21 | 5.38 | 1.72 | 3.35 | 2.64 | 6.97 | 2.1 | 4.39 | 2.18 | 4.25 | 1.65 | 4.11
COc1cc(C(=O)c2c(-c3ccccc3)oc3ccccc23)cc(OC)c1O | 4.49 | 41.1 | 1.04 | 12.5 | 0.565 | 3.85 | 0.595 | 12.7 | 3.96 | 22.6 | 0.773 | 19.6 | 1.83 | 12.9 | 2.57 | 12.6 | 16 | 64.3 | 3.14 | 19.4
Cc1[nH]nc(C(=O)N/N=C/c2cccs2)c1N=NN(C)C |  | 13 |  | > 100 |  | 89.4 |  | 55.1 |  | > 100 |  | 29.5 |  | 89.7 |  | 50.2 |  | 72.4 |  | 21.9
Cc1cc(I)cc(CN(C)CCCCN2CCCC2)c1O | 36.8 | > 100 | 13.1 | 40 | 16 | 35.2 | 15.3 | 70.2 | 34.7 | > 100 | 22.4 | 46.2 | 15.1 | 36 | 12.7 | 25.2 | 16.6 | 32.8 | 28.2 | > 100
O=C(/C=C/c1cccs1)Nc1ncc(Cc2ccccc2F)s1 | 0.462 | > 100 | 0.273 | > 100 | 0.213 | 0.589 | 1.39 | > 100 | 2.78 | > 100 | 0.194 |  | 0.33 | > 100 | 0.242 | > 100 | > 100 | > 100 | 0.437 | > 100
Clc1cccc(C2SCc3nc4ccccc4n32)c1Cl (stereo not drawn) |  | 35.3 |  | 33.5 |  | 20.3 |  | 30.1 |  | 32.1 |  | 32.1 |  | 90.6 |  | 27.3 |  | 28.5 |  | 25.8
CCn1c(-c2cc3ccccc3cc2OC(=O)c2ccccc2)n[nH]c1=S | > 50 | > 50 | 43.1 | > 50 | 32.7 | > 50 | > 50 | > 50 | 22.5 | > 50 | 11 | 45.4 | 9.96 | 23.8 | 19.8 | > 50 | > 50 | > 50 | 21.1 | > 50
CCc1ccc(/C=C2/SC(=S)NC2=O)cc1 | 27.2 | > 100 | 21 | 59.5 | 21.6 | 57 | 3.41 | 26.4 | 18.6 | 47 | 15 | 43.8 | 16.5 | > 76 | 14.9 | 37.6 | 17.7 | 61.3 | 13.2 | 33.1
COc1cc(Nc2ncc(-c3ccccc3)o2)cc(OC)c1OC | 1.18 | > 25 | 1.45 | > 25 | 0.858 | > 9.44 | 4.27 | > 25 | 2.84 | > 25 | 0.925 | > 25 | 16.3 | > 25 | 0.138 |  | > 15.9 | > 25 | 1.84 | > 25
NC(=NC1C2CC3CC(C2)CC1C3)Nc1ccc(I)cc1 (stereo not drawn) | 2.92 | 9.45 | 3.11 | 10.4 | 6.43 | 27.2 | 1.6 | 5.21 | 2.77 | 10.7 | 2.63 | 11.2 | 2.49 | 5.72 | 1.57 | 2.95 | 2.16 | 5.21 | 2.67 | 12.8
